According to patent US7718641B2, “Pyrrolo [3,4-H] isoquinoline compounds and methods for modulating gated ion channels” (Aros Pharma ApS, priority 2005, dated 2010):

Target: T1, hASIC1a (Homo sapiens, UniProt P78348)
T1 sequence (P78348 1-528): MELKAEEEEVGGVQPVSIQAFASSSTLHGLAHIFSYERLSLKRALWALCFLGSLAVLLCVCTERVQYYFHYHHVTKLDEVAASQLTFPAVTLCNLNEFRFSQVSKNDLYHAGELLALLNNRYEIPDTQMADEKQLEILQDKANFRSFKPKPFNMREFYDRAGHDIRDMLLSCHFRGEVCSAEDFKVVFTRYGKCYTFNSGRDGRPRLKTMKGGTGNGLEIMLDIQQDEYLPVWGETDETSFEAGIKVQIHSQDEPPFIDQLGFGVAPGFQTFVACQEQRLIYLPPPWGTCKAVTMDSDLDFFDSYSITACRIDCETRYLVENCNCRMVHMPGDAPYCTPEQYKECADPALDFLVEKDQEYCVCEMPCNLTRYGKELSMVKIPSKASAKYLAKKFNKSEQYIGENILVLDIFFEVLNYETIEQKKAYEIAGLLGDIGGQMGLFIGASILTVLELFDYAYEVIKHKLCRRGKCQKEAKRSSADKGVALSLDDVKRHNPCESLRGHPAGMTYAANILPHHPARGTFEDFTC
Experiment: Calcium-imaging (FLIPR, Fluo-4) of acid (MES)-induced calcium response in ASIC1a expressing HEK293 cells
Assay type: cell-based
Design: expressed in transfected cells; host or cells: HEK293
Settings: calcium mobilization assay, MES-induced calcium response, HEK293, n=3-7
Description: ASIC1a expressing HEK293 cells are grown in culture medium (DMEM with 10% FBS), in polystyrene culture flasks ([…]) at 37° C. in a humidified atmosphere of 5% CO2. Confluency of cells should be 80-90% on day of plating. Cells are rinsed with 10 ml of PBS and re-suspended by addition of culture medium and trituration with a 25 ml pipette.
The cells are seeded at a density of approximately 1×10^6 cells/ml (100 μl/well) in black-walled, clear bottom, 96-well plates pre-treated with 10 mg/l poly-D-lysin (75 μl/well for ≧30 min). Plated cells were allowed to proliferate for 24 h before loading with dye.
Fluo-4/AM (1 mg, Molecular Probes) is dissolved in 912 μl DMSO. The Fluo-4/AM stock solution (1 mM) is diluted with culture medium to a final concentration of 2 μM (loading solution).
The culture medium is aspirated from the wells, and 50 μl of the Fluo-4/AM loading solution is added to each well. The cells are incubated at 37° C. for 30 min.
After the loading period, the loading solution is aspirated and the cells are washed twice with 100 μl modified Assay Buffer (145 mM NaCl, 5 mM KCl, 5 mM CaCl2, 1 mM MgCl2, 10 mM HEPES, pH 7.4) to remove extracellular dye. Following the second wash, 100 μl modified Assay Buffer is added to each well and the fluorescence is measured in FLIPR™ or FlexStation™ (Molecular Devices, USA), or any other suitable equipment known to the skilled in the art.
Temperature: Room temperature (20-22° C.)
First addition: 50 μl test solution at a rate of 30 μl/sec and a starting height of 100 μl.
Second addition: 50 μl MES solution (20 mM, 5 mM final concentration) at a rate of 35 μl/sec and a starting height of 150 μl.
Reading intervals: pre-incubation—10 sec×7 and 3 sec×3 antagonist phase—3 sec×17 and 10 sec×12
Addition plates (compound test plate and MES plate) are placed on the right and left positions in the FLIPR tray, respectively. Cell plates are placed in the middle position and the ASIC1a program is effectuated. FLIPR will then take the appropriate measurements in accordance with the interval settings above. Fluorescence obtained after stimulation is corrected for the mean basal fluorescence (in modified Assay Buffer).
The MES-induced peak calcium response, in the presence of test substance, is expressed relatively to the MES response alone. Test substances that block the MES-induced calcium response are re-tested in triplicates. Confirmed hits are picked for further characterization by performing full dose-response curves to determine potency of each hit compound as represented by the IC50 values (i.e., the concentration of the test substance which inhibits 50% of the MES-induced calcium response; see, for example, FIGS. 1A, 1B and 1C, and FIGS. 13A and 13B).

SMILES	IC50 [nM]
COc1ccc(F)cc1-c1cc2c(c3c1CCN(C)C3)NC(=O)/C2=N/O [Compound A, 5-(5-fluoro-2-methoxyphenyl)-6,7,8,9-tetrahydro-3-(hydroxyimino)-8-methyl-1H-pyrrolo[3,2-h]isoquinoline-2(3H)-one]	100 to 200
CCN1CCc2c(-c3ccccc3)cc3c(c2C1)NC(=O)/C3=N/O [Compound H, 5-phenyl-6,7,8,9-tetrahydro-3-(hydroxyimino)-8-ethyl-1H-pyrrolo[3,2-h]isoquinoline-2(3H)-one]	15 to 250
